From patent publication US20240343704A1, “HALO-SUBSTITUTED AMINO PYRIDINE COMPOUNDS AS INHIBITORS OF THE HAEMATOPOIETIC PROGENITOR KINASE 1 (HPK1)” (priority 2021, published 2024)
Counter-ions that a name gives are not always drawn.

How the values were obtained:
Lck (h) = Lck (h) (Homo sapiens, UniProt P06239); assay: Lck Human  Kinase Enzymatic Radiometric Assay; assay type: biochemical; details: read-out: Lck IC50 nM Range*
Method in brief: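 Substrate 33P-incorporation measured by scintillation counting after spotting on P30 filtermat and phosphoric acid washes. Human Lck reacted 40 min at RT in 50 mM Tris pH 7.5 with 10 mM MgAcetate, [gamma-33P]-ATP, 250 uM Cdc2 peptide, 0.1 mM EGTA and 0.1 mM Na3VO4.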

[1] = target: T1, Recombinant (1-346) HPK1 (h) (Homo sapiens, UniProt Q92918); assay: HPK1 Human STE Kinase Enzymatic Radiometric Assay; assay type: biochemical; details: read-out: HPK1 IC50 nM Range*
T1 construct: Recombinant (1-346) HPK1 (h) is incubated with 8 mM MOPS pH 7.0
T1 sequence (Q92918 1-346): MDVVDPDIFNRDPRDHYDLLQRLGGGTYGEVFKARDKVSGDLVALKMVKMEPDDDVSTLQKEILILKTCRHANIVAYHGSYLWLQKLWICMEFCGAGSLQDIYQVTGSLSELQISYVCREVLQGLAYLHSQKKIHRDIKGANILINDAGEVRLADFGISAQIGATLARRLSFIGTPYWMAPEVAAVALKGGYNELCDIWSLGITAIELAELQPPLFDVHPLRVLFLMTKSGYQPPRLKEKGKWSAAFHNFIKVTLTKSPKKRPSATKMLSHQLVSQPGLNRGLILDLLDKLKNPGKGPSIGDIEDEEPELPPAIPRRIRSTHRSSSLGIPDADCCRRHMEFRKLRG
Experimental: A stock solution of 10 mM of test compound is prepared in DMSO. The compound plate was prepared by 3-fold and 9-point serial dilutions. […] The reaction is initiated by The addition of the Mg/ATP mix. After incubation for 40 minutes at RT, the reaction is stopped by the addition of phosphoric acid to a concentration of 0.5%.

Chain of Lck (h) (P06239 whole entry): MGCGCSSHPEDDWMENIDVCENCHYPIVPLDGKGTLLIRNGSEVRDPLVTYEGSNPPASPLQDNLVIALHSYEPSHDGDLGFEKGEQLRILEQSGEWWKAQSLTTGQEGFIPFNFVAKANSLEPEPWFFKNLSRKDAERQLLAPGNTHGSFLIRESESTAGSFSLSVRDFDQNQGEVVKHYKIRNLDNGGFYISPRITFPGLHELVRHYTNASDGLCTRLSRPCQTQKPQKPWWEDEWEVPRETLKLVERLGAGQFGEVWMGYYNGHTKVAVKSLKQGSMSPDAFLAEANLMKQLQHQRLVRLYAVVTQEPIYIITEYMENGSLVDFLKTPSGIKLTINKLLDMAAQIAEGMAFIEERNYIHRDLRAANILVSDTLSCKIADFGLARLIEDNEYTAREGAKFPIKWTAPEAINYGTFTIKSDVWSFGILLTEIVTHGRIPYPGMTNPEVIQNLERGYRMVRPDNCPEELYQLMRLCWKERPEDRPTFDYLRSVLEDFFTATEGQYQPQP

Nc1nc(F)c(-c2ccc3c(c2)CCNC3)cc1-c1ccc2c(c1)CCNC2=O [I-255, 6-(2-amino-6-fluoro-5-(1,2,3,4-tetrahydroisoquinolin-6-yl)pyridin-3-yl)-3,4-dihydroisoquinolin-1(2H)-one 2,2,2-trifluoroacetate]
IC50 (Lck (h)): > 1000 nM | IC50 [1]: 0.1 to 10 nM

Nc1nc(F)c(-c2ccc(C3CCN(CC(F)F)CC3)cc2)cc1-c1cc2c(cc1F)C(=O)NCC2 [I-256, 6-(2-amino-5-(4-(1-(2,2-difluoroethyl)piperidin-4-yl)phenyl)-6-fluoropyridin-3-yl)-7-fluoro-3,4-dihydroisoquinolin-1(2H)-one]
IC50 (Lck (h)): > 1000 nM | IC50 [1]: 0.1 to 10 nM

Nc1nc(F)c(-c2ccc(CN3CCOCC3)cc2)cc1-c1ccc2c(c1)CCNC2=O [I-257, 6-(2-amino-6-fluoro-5-(4-(morpholinomethyl)phenyl)pyridin-3-yl)-3,4-dihydroisoquinolin-1(2H)-one]
IC50 (Lck (h)): > 1000 nM | IC50 [1]: 11 to 100 nM

CN1CCN(Cc2ccc(-c3cc(-c4ccc5c(c4)CCNC5=O)c(N)nc3F)cc2)CC1 [I-258, 6-(2-amino-6-fluoro-5-(4-((4-methylpiperazin-1-yl)methyl)phenyl)pyridin-3-yl)-3,4-dihydroisoquinolin-1(2H)-one]
IC50 (Lck (h)): > 1000 nM | IC50 [1]: 11 to 100 nM

CN1CCN(C(=O)c2ccc(-c3cc(-c4ccc5c(c4)CCNC5=O)c(N)nc3F)cc2)CC1 [I-259, 6-(2-amino-6-fluoro-5-(4-(4-methylpiperazine-1-carbonyl)phenyl)pyridin-3-yl)-3,4-dihydroisoquinolin-1(2H)-one]
IC50 (Lck (h)): > 1000 nM | IC50 [1]: 11 to 100 nM

CN1CCN(C2(c3ccc(-c4cc(-c5ccc6c(c5)CCNC6=O)c(N)nc4F)cc3)CC2)CC1 [I-260, 6-(2-amino-6-fluoro-5-(4-(1-(4-methylpiperazin-1-yl)cyclopropyl)phenyl)pyridin-3-yl)-3,4-dihydroisoquinolin-1(2H)-one]
IC50 (Lck (h)): > 1000 nM | IC50 [1]: 11 to 100 nM

CC(C)N1CCC(Oc2ccc(-c3cc(-c4ccc5c(c4)CCNC5=O)c(N)nc3F)cc2C(F)(F)F)CC1 [I-261, 6-(2-amino-6-fluoro-5-(4-((1-isopropylpiperidin-4-yl)oxy)-3-(trifluoromethyl)phenyl)pyridin-3-yl)-3,4-dihydroisoquinolin-1(2H)-one]
IC50 (Lck (h)): > 1000 nM | IC50 [1]: 11 to 100 nM

COCCN1CCC(Oc2ccc(-c3cc(-c4ccc5c(c4)CCNC5=O)c(N)nc3F)cc2C(F)(F)F)CC1 [I-262, 6-(2-amino-6-fluoro-5-(4-((1-(2-methoxyethyl)piperidin-4-yl)oxy)-3-(trifluoromethyl)phenyl)pyridin-3-yl)-3,4-dihydroisoquinolin-1(2H)-one]
IC50 (Lck (h)): > 1000 nM | IC50 [1]: 0.1 to 10 nM

CC(C)N1CCN(c2ccc(-c3cc(-c4cc5c(cc4F)C(=O)NCC5)c(N)nc3F)cc2C(F)(F)F)CC1 [I-263, 6-(2-amino-6-fluoro-5-(4-(4-isopropylpiperazin-1-yl)-3-(trifluoromethyl)phenyl)pyridin-3-yl)-7-fluoro-3,4-dihydroisoquinolin-1(2H)-one]
IC50 (Lck (h)): > 1000 nM | IC50 [1]: 0.1 to 10 nM

COCCN1CCN(c2ccc(-c3cc(-c4cc5c(cc4F)C(=O)NCC5)c(N)nc3F)cc2C(F)(F)F)CC1 [I-264, 6-(2-amino-6-fluoro-5-(4-(4-(2-methoxyethyl)piperazin-1-yl)-3-(trifluoromethyl)phenyl)pyridin-3-yl)-7-fluoro-3,4-dihydroisoquinolin-1(2H)-one]
IC50 (Lck (h)): > 1000 nM | IC50 [1]: 0.1 to 10 nM

Nc1nc(F)c(-c2cccc(CN3CCNCC3)c2)cc1-c1ccc2c(c1)CCNC2=O [I-265, 6-(2-amino-6-fluoro-5-(3-(piperazin-1-ylmethyl)phenyl)pyridin-3-yl)-3,4-dihydroisoquinolin-1(2H)-one formate]
IC50 (Lck (h)): > 1000 nM | IC50 [1]: 11 to 100 nM

COCCN1CCc2cc(-c3cc(-c4ccc5c(c4)CCNC5=O)c(N)nc3F)ccc2C1 [I-266, 6-(2-amino-6-fluoro-5-(2-(2-methoxyethyl)-1,2,3,4-tetrahydroisoquinolin-6-yl)pyridin-3-yl)-3,4-dihydroisoquinolin-1(2H)-one]
IC50 (Lck (h)): > 1000 nM | IC50 [1]: 11 to 100 nM

CC(C)N1CCC(Oc2ccc(-c3cc(-c4ccc5c(c4)CCNC5=O)c(N)nc3F)cc2)CC1 [I-267, 6-(2-amino-6-fluoro-5-(4-((1-isopropylpiperidin-4-yl)oxy)phenyl)pyridin-3-yl)-3,4-dihydroisoquinolin-1(2H)-one]
IC50 (Lck (h)): > 1000 nM | IC50 [1]: 0.1 to 10 nM

CC(C)N1CCC(Oc2ccc(-c3cc(-c4ccc5c(c4)CCNC5=O)c(N)nc3F)cc2F)CC1 [I-268, 6-(2-amino-6-fluoro-5-(3-fluoro-4-((1-isopropylpiperidin-4-yl)oxy)phenyl)pyridin-3-yl)-3,4-dihydroisoquinolin-1(2H)-one]
IC50 (Lck (h)): > 1000 nM | IC50 [1]: 0.1 to 10 nM

COCCN1CCC(Oc2ccc(-c3cc(-c4ccc5c(c4)CCNC5=O)c(N)nc3F)cc2F)CC1 [I-269, 6-(2-amino-6-fluoro-5-(3-fluoro-4-((1-(2-methoxyethyl)piperidin-4-yl)oxy)phenyl)pyridin-3-yl)-3,4-dihydroisoquinolin-1(2H)-one]
IC50 (Lck (h)): > 1000 nM | IC50 [1]: 0.1 to 10 nM

CC(C)N1CCC(Oc2ccc(-c3cc(-c4ccc5c(c4)CCNC5=O)c(N)nc3F)c(F)c2F)CC1 [I-270, 6-(2-amino-5-(2,3-difluoro-4-((1-isopropylpiperidin-4-yl)oxy)phenyl)-6-fluoropyridin-3-yl)-3,4-dihydroisoquinolin-1(2H)-one]
IC50 (Lck (h)): > 1000 nM | IC50 [1]: 11 to 100 nM

CC(C)N1CCC(Oc2cc(F)c(-c3cc(-c4ccc5c(c4)CCNC5=O)c(N)nc3F)cc2F)CC1 [I-271, 6-(2-amino-5-(2,5-difluoro-4-((1-isopropylpiperidin-4-yl)oxy)phenyl)-6-fluoropyridin-3-yl)-3,4-dihydroisoquinolin-1(2H)-one]
IC50 (Lck (h)): > 1000 nM | IC50 [1]: 11 to 100 nM

COc1cc(OC2CCN(C(C)C)CC2)ccc1-c1cc(-c2ccc3c(c2)CCNC3=O)c(N)nc1F [I-272, 6-(2-amino-6-fluoro-5-(4-((1-isopropylpiperidin-4-yl)oxy)-2-methoxyphenyl)pyridin-3-yl)-3,4-dihydroisoquinolin-1(2H)-one]
IC50 (Lck (h)): > 1000 nM | IC50 [1]: 0.1 to 10 nM

COc1cc(-c2cc(-c3ccc4c(c3)CCNC4=O)c(N)nc2F)ccc1OC1CCN(C(C)C)CC1 [I-273, 6-(2-amino-6-fluoro-5-(4-((1-isopropylpiperidin-4-yl)oxy)-3-methoxyphenyl)pyridin-3-yl)-3,4-dihydroisoquinolin-1(2H)-one]
IC50 (Lck (h)): > 1000 nM | IC50 [1]: 0.1 to 10 nM

CC(C)N1CCC[C@H](Oc2ccc(-c3cc(-c4ccc5c(c4)CCNC5=O)c(N)nc3F)cc2)C1 [I-274, (S)-6-(2-amino-6-fluoro-5-(4-((1-isopropylpiperidin-3-yl)oxy)phenyl)pyridin-3-yl)-3,4-dihydroisoquinolin-1(2H)-one]
IC50 (Lck (h)): > 1000 nM | IC50 [1]: 0.1 to 10 nM

CC(C)N1CCC(Oc2ccc(-c3cc(-c4ccc5c(c4)CCNC5=O)c(N)nc3F)c3c2OCO3)CC1 [I-275, 6-(2-amino-6-fluoro-5-(7-((1-isopropylpiperidin-4-yl)oxy)benzo[d][1,3]dioxol-4-yl)pyridin-3-yl)-3,4-dihydroisoquinolin-1(2H)-one]
IC50 (Lck (h)): > 1000 nM | IC50 [1]: 0.1 to 10 nM

CNCC1Cc2cc(-c3cc(-c4ccc5c(c4)CCNC5=O)c(N)nc3F)ccc2C(=O)N1 (stereo not drawn) [I-276, 6-(6-amino-2-fluoro-5-(1-oxo-1,2,3,4-tetrahydroisoquinolin-6-yl)pyridin-3-yl)-3-((methylamino)methyl)-3,4-dihydroisoquinolin-1(2H)-one]
IC50 (Lck (h)): > 1000 nM | IC50 [1]: 11 to 100 nM

CN1CCCN(c2ccc(-c3cc(-c4ccc5c(c4)CCNC5=O)c(N)nc3F)cc2)CC1 [I-277, 6-(2-amino-6-fluoro-5-(4-(4-methyl-1,4-diazepan-1-yl)phenyl)pyridin-3-yl)-3,4-dihydroisoquinolin-1(2H)-one]
IC50 (Lck (h)): > 1000 nM | IC50 [1]: 0.1 to 10 nM

CC(C)N1CCN(c2ccc(-c3cc(-c4ccc5c(c4)CCNC5=O)c(N)nc3F)cc2)CC1C (stereo not drawn) [I-278, 6-(2-amino-6-fluoro-5-(4-(4-isopropyl-3-methylpiperazin-1-yl)phenyl)pyridin-3-yl)-3,4-dihydroisoquinolin-1(2H)-one]
IC50 (Lck (h)): > 1000 nM | IC50 [1]: 0.1 to 10 nM

CC(C)N1CCCN(c2ccc(-c3cc(-c4ccc5c(c4)CCNC5=O)c(N)nc3F)cc2)CC1 [I-279, 6-(2-amino-6-fluoro-5-(4-(4-isopropyl-1,4-diazepan-1-yl)phenyl)pyridin-3-yl)-3,4-dihydroisoquinolin-1(2H)-one]
IC50 (Lck (h)): > 1000 nM | IC50 [1]: 0.1 to 10 nM

Nc1nc(F)c(-c2ccc(N3CCN4CCCC4C3)cc2)cc1-c1ccc2c(c1)CCNC2=O (stereo not drawn) [I-280, 6-(2-amino-6-fluoro-5-(4-(hexahydropyrrolo[1,2-a]pyrazin-2(1H)-yl)phenyl)pyridin-3-yl)-3,4-dihydroisoquinolin-1(2H)-one]
IC50 (Lck (h)): > 1000 nM | IC50 [1]: 0.1 to 10 nM

Nc1nc(F)c(-c2ccc(N3CCCN4CCCC4C3)cc2)cc1-c1ccc2c(c1)CCNC2=O (stereo not drawn) [I-281, 6-(2-amino-6-fluoro-5-(4-(hexahydro-1H-pyrrolo[1,2-a][1,4]diazepin-2(3H)-yl)phenyl)pyridin-3-yl)-3,4-dihydroisoquinolin-1(2H)-one]
IC50 (Lck (h)): > 1000 nM | IC50 [1]: 0.1 to 10 nM
